Experimental data as given in ChEMBL document CHEMBL1201862, “PubChem BioAssay data set” (2004).
Calls of active or inactive are those of the source. For most assays here, no stated cut-off is given here; in the data, actives have a measured IC50 and inactives only a lower limit.

Experiments:
[1] = molecular target: Dual specificity protein kinase CLK1 (Homo sapiens, UniProt P49759); assay: inhibition of human CLK1 activity – biochemical, cherry-picked samples, selectivity assay for Dyrk1A inhibitor project, dose response (AID 588811)
[2] = molecular target: Dual specificity tyrosine-phosphorylation-regulated kinase 1A (Rattus norvegicus, UniProt Q63470); assay type: biochemical, Homo sapiens
[3] = molecular target: T1, Sentrin-specific protease 7 (Homo sapiens, UniProt Q9BQF6); assay: inhibition of human SENP7 cleavage activity – biochemical, luminescence, SAR follow-up (AID 504497); assay type: functional
T1 sequence (Q9BQF6 whole entry): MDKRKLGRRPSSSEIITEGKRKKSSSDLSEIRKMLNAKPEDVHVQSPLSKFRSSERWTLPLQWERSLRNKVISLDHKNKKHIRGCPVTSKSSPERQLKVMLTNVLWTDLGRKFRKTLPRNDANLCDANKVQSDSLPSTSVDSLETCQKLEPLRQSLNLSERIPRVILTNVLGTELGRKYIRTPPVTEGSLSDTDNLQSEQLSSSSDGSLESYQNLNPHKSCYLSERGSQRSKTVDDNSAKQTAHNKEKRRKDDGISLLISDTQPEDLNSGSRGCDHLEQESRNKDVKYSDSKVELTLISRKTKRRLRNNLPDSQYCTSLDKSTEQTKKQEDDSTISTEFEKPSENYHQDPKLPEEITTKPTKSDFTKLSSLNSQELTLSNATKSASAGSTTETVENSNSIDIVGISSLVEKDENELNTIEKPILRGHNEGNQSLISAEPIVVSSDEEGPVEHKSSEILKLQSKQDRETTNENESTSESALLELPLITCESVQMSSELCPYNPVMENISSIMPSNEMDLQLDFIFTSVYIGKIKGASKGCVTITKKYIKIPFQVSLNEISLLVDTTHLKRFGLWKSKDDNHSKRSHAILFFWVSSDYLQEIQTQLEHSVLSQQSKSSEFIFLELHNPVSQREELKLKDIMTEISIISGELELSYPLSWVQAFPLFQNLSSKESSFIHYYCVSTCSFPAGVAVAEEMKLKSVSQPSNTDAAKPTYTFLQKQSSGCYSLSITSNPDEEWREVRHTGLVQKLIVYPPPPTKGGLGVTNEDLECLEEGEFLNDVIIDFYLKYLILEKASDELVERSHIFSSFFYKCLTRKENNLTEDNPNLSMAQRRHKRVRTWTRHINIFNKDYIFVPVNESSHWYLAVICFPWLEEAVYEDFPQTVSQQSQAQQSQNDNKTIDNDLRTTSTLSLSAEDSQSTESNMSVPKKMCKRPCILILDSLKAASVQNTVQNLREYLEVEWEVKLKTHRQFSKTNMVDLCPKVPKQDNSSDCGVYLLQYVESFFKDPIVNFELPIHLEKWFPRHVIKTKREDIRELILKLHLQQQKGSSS

[4] = molecular target: T2, Sentrin-specific protease 6 (Homo sapiens, UniProt Q9GZR1); assay: SAR Analysis of small molecule inhibitors of Sentrin-specific protease 6 (SENP6) using a Luminescent assay. [Related pubchem assays (depositor defined):AID2582, AID2599]; assay type: functional
T2 sequence (Q9GZR1 whole entry): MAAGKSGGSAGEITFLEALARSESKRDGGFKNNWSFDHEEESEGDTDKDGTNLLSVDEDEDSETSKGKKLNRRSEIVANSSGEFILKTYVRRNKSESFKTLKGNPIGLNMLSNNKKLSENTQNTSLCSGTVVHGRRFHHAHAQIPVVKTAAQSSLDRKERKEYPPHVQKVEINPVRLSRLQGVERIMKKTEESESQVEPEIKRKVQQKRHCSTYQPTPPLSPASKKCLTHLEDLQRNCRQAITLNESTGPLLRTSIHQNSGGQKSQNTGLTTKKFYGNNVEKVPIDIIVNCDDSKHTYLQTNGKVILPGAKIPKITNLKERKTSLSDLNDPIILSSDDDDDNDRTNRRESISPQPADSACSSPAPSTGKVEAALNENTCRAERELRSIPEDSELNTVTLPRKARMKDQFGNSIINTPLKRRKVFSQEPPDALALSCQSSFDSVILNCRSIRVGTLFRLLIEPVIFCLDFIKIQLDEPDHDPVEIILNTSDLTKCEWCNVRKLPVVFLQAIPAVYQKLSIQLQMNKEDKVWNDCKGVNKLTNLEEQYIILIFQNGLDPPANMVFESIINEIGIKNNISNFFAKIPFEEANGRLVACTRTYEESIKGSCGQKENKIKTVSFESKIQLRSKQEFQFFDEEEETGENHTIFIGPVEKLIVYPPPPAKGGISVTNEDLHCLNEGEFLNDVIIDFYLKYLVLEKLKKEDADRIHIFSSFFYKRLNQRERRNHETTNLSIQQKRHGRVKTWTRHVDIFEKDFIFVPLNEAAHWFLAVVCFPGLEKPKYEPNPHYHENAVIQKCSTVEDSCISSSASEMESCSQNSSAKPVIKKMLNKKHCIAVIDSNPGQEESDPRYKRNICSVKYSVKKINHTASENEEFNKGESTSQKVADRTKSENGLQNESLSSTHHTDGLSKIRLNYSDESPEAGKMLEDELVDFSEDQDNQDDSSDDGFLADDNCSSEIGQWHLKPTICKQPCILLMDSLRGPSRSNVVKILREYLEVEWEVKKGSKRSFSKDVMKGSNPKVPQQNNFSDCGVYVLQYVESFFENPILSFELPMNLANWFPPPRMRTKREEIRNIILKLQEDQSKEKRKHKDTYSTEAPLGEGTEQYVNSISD

Caspase-3 [5] = molecular target: T3, Caspase-3 (Homo sapiens, UniProt P42574); assay: inhibition of recombinant caspase-3 activity – biochemical, luminescence, set 2, selectivity assay for SENP protease inhibitor project, SAR follow-up (AID 588599); assay type: functional
T3 sequence (P42574 whole entry): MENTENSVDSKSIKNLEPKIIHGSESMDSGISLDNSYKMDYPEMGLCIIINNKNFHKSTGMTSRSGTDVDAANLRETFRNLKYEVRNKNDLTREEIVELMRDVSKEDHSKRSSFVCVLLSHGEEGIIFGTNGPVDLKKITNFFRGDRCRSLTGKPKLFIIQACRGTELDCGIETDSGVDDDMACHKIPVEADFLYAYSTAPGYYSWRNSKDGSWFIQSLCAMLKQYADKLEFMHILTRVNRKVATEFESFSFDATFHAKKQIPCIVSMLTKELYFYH

[6] = molecular target: T2, Sentrin-specific protease 6; assay: inhibition of human SENP6 catalytic domain – biochemical, luminescence, set 2, SAR follow-up (AID 588598); assay type: functional
[7] = molecular target: T1, Sentrin-specific protease 7; assay: inhibition of human SENP7 cleavage activity – biochemical, luminescence, set 2, SAR follow-up (AID 588600); assay type: functional
Caspase-3 [8] = molecular target: T3, Caspase-3; assay: SAR Analysis of small molecule inhibitors of Sentrin-specific proteases (SENPs) using a Caspase-3 Selectivity assay. [Related pubchem assays (depositor defined):AID2540, AID2599, AID434973, AID489001]; assay type: functional
[9] = molecular target: T4, Sentrin-specific protease 8 (Homo sapiens, UniProt Q96LD8); assay: inhibition of sentrin protease 8 – biochemical, luminescence, set 2, SAR follow-up (AID 588601); assay type: functional
T4 sequence (Q96LD8 whole entry): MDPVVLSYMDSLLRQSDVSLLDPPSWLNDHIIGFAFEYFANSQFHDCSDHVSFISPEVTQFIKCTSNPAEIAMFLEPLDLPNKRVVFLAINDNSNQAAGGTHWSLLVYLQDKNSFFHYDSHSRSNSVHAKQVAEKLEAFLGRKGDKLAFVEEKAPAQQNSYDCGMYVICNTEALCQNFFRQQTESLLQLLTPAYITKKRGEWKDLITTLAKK

[10] = molecular target: T4, Sentrin-specific protease 8; assay: inhibition of human SENP8 cleavage activity – biochemical, luminescence, SAR follow-up (AID 504501); assay type: functional
[11] = molecular target: T5, Neuropeptides B/W receptor type 1 (Homo sapiens, UniProt P48145); assay: human NPBW1 receptor blockade, IC50 – cell-based, fluorescence, dose response, set 6, late-stage follow-up (AID 588583); assay type: functional
T5 sequence (P48145 whole entry): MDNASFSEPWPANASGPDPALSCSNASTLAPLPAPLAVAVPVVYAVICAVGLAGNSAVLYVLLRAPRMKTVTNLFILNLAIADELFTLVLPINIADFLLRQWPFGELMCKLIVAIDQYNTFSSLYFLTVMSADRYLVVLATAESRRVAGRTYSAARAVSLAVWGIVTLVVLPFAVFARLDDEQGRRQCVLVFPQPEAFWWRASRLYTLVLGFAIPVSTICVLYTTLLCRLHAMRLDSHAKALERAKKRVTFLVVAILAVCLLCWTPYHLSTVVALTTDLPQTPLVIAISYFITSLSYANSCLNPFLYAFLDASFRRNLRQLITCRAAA

[12] = molecular target: Melanin-concentrating hormone receptor 1 (Homo sapiens, UniProt Q99705); assay: Late-stage fluorescence-based counterscreen for antagonists of the G-protein coupled receptor 7 (GPR7): cell-based dose response assay to identify antagonists of the melanin-concentrating hormone receptor 1 (MCHR1) Set 6.; assay type: functional
Melanin-concentrating hormone receptor 1, sequence (Q99705 whole entry): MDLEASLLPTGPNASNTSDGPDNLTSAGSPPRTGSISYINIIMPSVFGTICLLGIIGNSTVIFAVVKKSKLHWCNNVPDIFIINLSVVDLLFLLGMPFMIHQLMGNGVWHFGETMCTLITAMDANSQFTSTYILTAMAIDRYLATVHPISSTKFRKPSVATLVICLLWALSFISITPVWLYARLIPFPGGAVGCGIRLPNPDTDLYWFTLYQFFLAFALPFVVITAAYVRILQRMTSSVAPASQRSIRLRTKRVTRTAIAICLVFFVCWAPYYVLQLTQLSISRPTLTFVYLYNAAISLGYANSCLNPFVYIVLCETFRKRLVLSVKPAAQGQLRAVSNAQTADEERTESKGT

Dual specificity protein kinase CLK1, sequence (P49759 whole entry): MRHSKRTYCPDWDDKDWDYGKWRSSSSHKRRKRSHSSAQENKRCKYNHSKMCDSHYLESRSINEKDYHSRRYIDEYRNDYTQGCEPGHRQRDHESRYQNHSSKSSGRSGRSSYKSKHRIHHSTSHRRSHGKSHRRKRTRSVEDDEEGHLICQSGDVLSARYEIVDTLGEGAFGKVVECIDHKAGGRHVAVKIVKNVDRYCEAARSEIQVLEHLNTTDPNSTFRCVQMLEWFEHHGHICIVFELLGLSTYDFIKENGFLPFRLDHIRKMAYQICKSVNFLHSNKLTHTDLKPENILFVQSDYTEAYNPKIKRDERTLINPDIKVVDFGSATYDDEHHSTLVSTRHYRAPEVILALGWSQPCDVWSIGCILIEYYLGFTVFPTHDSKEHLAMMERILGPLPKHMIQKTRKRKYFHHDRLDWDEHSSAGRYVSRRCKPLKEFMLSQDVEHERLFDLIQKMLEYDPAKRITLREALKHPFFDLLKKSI

COc1cccc(Nc2ncnc3ccccc23)c1
AC50 [1]: 3940 nM (active)
AC50 [2]: 4910 nM (active)

O=C(Nc1nc2ccccc2s1)c1nccs1
IC50 [3]: 1400 nM (active)
IC50 [4]: 2100 nM (active)
IC50 (Caspase-3 [5]): 1010 nM (active)
IC50 [6]: 1490 nM (active)
IC50 [7]: 1540 nM (active)
IC50 (Caspase-3 [8]): 900 nM (active)
IC50 [9]: 1550 nM (active)
IC50 [10]: 2100 nM (active)

CCN(C(=O)c1cc(S(=O)(=O)N(CC)CC)ccc1C)c1nc2ccccc2s1
IC50 (Caspase-3 [5]): > 99000 nM (inactive)
IC50 [6]: > 99000 nM (inactive)
IC50 [7]: > 99000 nM (inactive)
IC50 [9]: > 99000 nM (inactive)

Cc1cc(C(C#N)c2c(Cl)cnn(Cc3cccc4ccccc34)c2=O)on1 (stereo unspecified)
IC50 [11]: 136 nM (active)
IC50 [12]: 136 nM (active)
